{"source": "patent US10480032B2", "about": "“Use of EI24 gene” (UNIVERSITY-INDUSTRY FOUNDATION, YONSEI UNIVERSITY, priority 2016, dated 2019)", "system": "PC9-GR cells expressing exogenous EI24 (9GR-O/E)", "experiment": "MTT assay in gefitinib-resistant PC9-GR cells over-expressing EI24", "assay_type": "cell-based, human", "conditions": "20 μM gefitinib, ectopic expression of EI24 in PC9-GR, FIG. 3", "description": "A PC9 EGFR-mutant NSCLC cell line and its gefitinib-resistant derivative (PC9-GR) are described in a document by S. M. Kim et al. (Mol. Cancer Ther. vol. 11, pp. 2254-2264(2012)). All cells were cultured in an RPMI 1640 medium supplemented with 10% […]. A human EI24-overexpressing cell line and a control cell line were established by transfection with a plasmid including FLAG-tagged EI24 and the corresponding empty vector (pcDNA3.1), respectively. Human EI24-knockdown cell lines were established using a method described in a document by J. M. Choi et al. (Oncotarget, vol. 4, pp. 2383-2396(2013)). The shRNA sequences are as follows:\nCells were seeded at a density of 3×10^4 cells/well in a 96-well culture plate and incubated for 24 hours. The cells were exposed to drugs for 48 hours, and 0.4 mg/ml MTT was added until reaching a mid-height of each well. After incubating at 37° C. for 4 hours, formazan crystals in viable cells were solubilized with 100 μl of dimethyl sulfoxide (DMSO). The optical density of the formazan product was read at 590 nm on a microreader (Bio-Rad). All experiments were repeated three times.\nIn addition, the EI24 gene was over-expressed in a gefitinib-resistant cell line (PC9-GR) among PC9 cell lines and gefitinib was added thereto, and EI24 expression and apoptosis were measured through immunoblotting analysis and MTT assay, respectively. […]"}
{"smiles": "COc1cc2ncnc(Nc3ccc(F)c(Cl)c3)c2cc1OCCCN1CCOCC1", "note": "[gefitinib]", "values": [{"measurement": "cell viability", "value": "up to 18%"}]}
